One data set relates to Hepatitis B Virus (HBV). Kind of data set: Inhibition of hepatitis B virus replication in HepG2.2.15 cells, quantitative PCR of culture medium. It is filed as cell-based. The settings on record: for pharmaceutical activity as an antiviral agent (in words): comparison among the compounds of Table 2.
The nature of data set [1]: Determination of cytotoxicity (MTT) in HepG2.2.15 cells. The settings on record: human.
Data set [2] has as its system HepG2.2.15 cell. The data set is described as above. The settings on record: read-out: CC50 (μM) in HepG2.2.15; MTT, 10th day of drug treatment.
A further data set has as its system HBV. Kind of data set: Pharmacological test on HBV transgenic mouse (serum HBV DNA by PCR). The data set is classed as in vivo. The settings on record: for Result: number of mice showing pharmacological effect / number of total mice: effect = blood does not contain HBV DNA.
The test system of data set [3] is HepG2.2.15 cell.
[4] abbreviates: Hepatitis B virus, 240 h, HepG2.2.15 cells, 10 days drug treatment, HBV DNA in medium by PCR.

From patent US20060111324A1, “(+)-Ttrans-isomers of (1-phosphonomethoxy-2-alkylcyclopropyl)methyl nucleoside derivatives, process for the preparation of stereoisomers thereof, and use of antiviral agents thereof” (LG Life Sciences, priority 2002, published 2006) come the findings set out here.

Where two headings read alike, the source gives them in different places.

As a reminder, the EC50 is the concentration giving half of the maximal effect. Lower therefore signals greater potency. For orientation: CC50 means the concentration at which the toxic effect on the cells reaches its halfway point. For the compound `C[C@@H]1C[C@]1(Cn1cnc2c(Sc3ccc([N+](=O)[O-])cc3)nc(N)nc21)OCP(=O)(O)O` (relative stereo) [Compound 44, [{(+)-cis-1-({2-amino-6-[(4-nitrophenyl)sulfanyl]-9H-purine-9-yl}methyl)-2-methylcyclopropyl}oxy]methylphosphonic acid], the EC50 in the data set with Hepatitis B Virus (HBV) (setting [4]) was over 40 µM. Further, the CC50 at 10 days in data set [1] is over 1000 µM.

Take `CC1CC1(Cn1cnc2c(O)nc(N)nc21)OCP(=O)(O)O` (single isomer, unassigned) [Compound 36, {(−)-trans-1-[(2-amino-6-hydroxy-9H-purine-9-yl)methyl]-2-methylcyclopropyl}oxy)methylphosphonic acid]: the concentration for a half-maximal effect (EC50) with Hepatitis B Virus (HBV) (HepG2.2.15 cells, 10 days drug treatment, HBV DNA in medium by PCR) was over 10 µM. In addition, the CC50 in the data set with HepG2.2.15 cell [2] was over 1000 µM.

As for `CCC1CC1(Cn1cnc2c(O)nc(N)nc21)OCP(=O)(O)O` (single isomer, unassigned) [Compound 37, ({(−)-trans-1-1(2-amino-6-hydroxy-9H-purine-9-yl)methyl]-2-ethylcyclopropyl}oxy)methylphosphonic acid], the EC50 in the data set on Hepatitis B Virus (HBV) (setting [4]) was over 40 µM. The same compound displayed a CC50 at 10 days in data set [1] of over 1000 µM.

In the case of `C[C@@H]1C[C@]1(Cn1cnc2c(O)nc(N)nc21)OCP(=O)(O)O` (single isomer, unassigned) [Compound 38, ({(+)-cis-1-[(2-amino-6-hydroxy-9H-purine-9-yl)methyl]-2-methylcyclopropyl}oxy)methylphosphonic acid], the EC50 with Hepatitis B Virus (HBV) (setting [4]) is over 10 µM. In data set [1], this compound registered a 50% cytotoxic concentration (CC50) at 10 days of over 1000 µM.

`C[C@H]1C[C@]1(Cn1cnc2c(O)nc(N)nc21)OCP(=O)(O)O` [Compound 1, (((1S,2S)-1-[(2-amino-6-hydroxy-9H-purine-9-yl)methyl]-2-methylcyclopropyl}oxy)methylphosphonic acid] showed an EC50 in the data set on Hepatitis B Virus (HBV) (setting [4]) of 0.03 µM. In addition, the “pharmaceutical activity as an antiviral agent (in words)” value in the data set with Hepatitis B Virus (HBV) was “most excellent pharmaceutical activity”. This compound came in with a CC50 at 10 days in data set [1] of over 1000 µM.

In the data set with Hepatitis B Virus (HBV) (setting [4]), `C[C@H]1C[C@]1(Cn1cnc2cnc(N)nc21)OCP(=O)(O)O` [Compound 2, ({(1S,2S)-1-[(2-amino-9H-purine-9-yl)methyl]-2-methylcyclopropyl}oxy)methylphosphonic acid] returned an EC50 of 1 µM. In data set [1], this compound displayed a CC50 at 10 days of over 1000 µM. In the data set with HBV (subcutaneous, 10 mg/kg/day), the “Result: number of mice showing pharmacological effect / number of total mice” value is 4/4.

Turning to `CC1CC1(Cn1cnc2cnc(N)nc21)OCP(=O)(OCOC(=O)C(C)(C)C)OCOC(=O)C(C)(C)C` [Compound 6, (1S,2S)-3-[({1-[(2-amino-9H-purine-9-yl)methyl]-2-methylcyclopropyl}oxy)methyl]-8,8-dimethyl-3,7-dioxo-2,4,6-trioxa-3λ^5-phosphanon-1-yl-pivalate], the “Result: number of mice showing pharmacological effect / number of total mice” value in the data set with HBV (oral, 1 mg/kg/day) was 5/5.

`CC(C)OC(=O)OCOP(=O)(COC1(Cn2cnc3cnc(N)nc32)CC1C)OCOC(=O)OC(C)C` [Compound 7, (1S,2S)-bis {[(isopropoxycarbonyl)oxy]methyl}({1-[(2-amino-9H-purine-9-yl)methyl]-2-methylcyclopropyl}oxy)methylphosphonate]: in the data set with HBV (HBV transgenic mice, orally administrated at 1 mpk or less), the “pharmacological effect (in words)” value is on record as “very excellent pharmacological effect”. For the same compound, the “Result: number of mice showing pharmacological effect / number of total mice” value with HBV (oral, 1 mg/kg/day) is on record as 5/5.

As for `COc1ccc(Sc2nc(N)nc3c2ncn3CC2(OCP(=O)(OCOC(=O)C(C)(C)C)OCOC(=O)C(C)(C)C)CC2C)cc1` [Compound 8, (1S,2S)-3-{[(1-{[2-amino-6-(4-methoxyphenylthio)-9H-purine-9-yl]methyl}-2-methylcyclopropyl)oxy]methyl}-8,8-dimethyl-3,7-dioxo-2,4,6-trioxa-3λ^5-phospanon-1-yl-pivalate], the “Result: number of mice showing pharmacological effect / number of total mice” value in the data set with HBV (oral, 1 mg/kg/day) is reported as 2/5.

On to `CC[C@H]1C[C@]1(Cn1cnc2c(O)nc(N)nc21)OCP(=O)(O)O` [Compound 12, ({(1S,2S)-1-[(2-amino-6-hydroxy-9H-purine-9-yl)methyl]-2-ethylcyclopropyl}oxy)methylphosphonic acid], for which, in the data set on Hepatitis B Virus (HBV) (setting [4]), the response was half-maximal at 0.03 µM (EC50). The “pharmaceutical activity as an antiviral agent (in words)” value in the data set on Hepatitis B Virus (HBV) is listed as “most excellent pharmaceutical activity”. The CC50 at 10 days in data set [1] was over 1000 µM.

For the compound `CCC1CC1(Cn1cnc2cnc(N)nc21)OCP(=O)(O)O` [Compound 13, ({(1S,^2S)-1-[(2-amino-9H-purine-9-yl)methyl]-2-ethylcyclopropyl}oxy)methylphosphonic acid], the EC50 in the data set with Hepatitis B Virus (HBV) (setting [4]) is over 10 µM. In addition, the CC50 at 10 days in data set [1] is over 1000 µM.

For the compound `CC1CC1(Cn1cnc2c(N)ncnc21)OCP(=O)(O)O` (stereo not drawn) [Compound 45, ({[(+)-cis-[1-(6-amino-9H-purine-9-yl)methyl]-2-methylcyclopropyl}oxylmethylphosphonic acid], the concentration giving a half-maximal response (EC50) in the data set on Hepatitis B Virus (HBV) (setting [4]) was over 40 µM. In data set [1], this compound registered a CC50 at 10 days of over 1000 µM.

Consider “({(±)-trans-1-[(2-amino-6-hydroxy-9H-purine-9-yl)methyl]-2-propylcyclopropyl}oxy)methylphosphonic acid [Compound 40]”, for which the response with Hepatitis B Virus (HBV) was half-maximal at 1.2 µM (EC50). The same compound gave a half-maximal cytotoxic concentration (CC50) with HepG2.2.15 cell [3] of over 1000 µM.

“({(±)-trans-1-[(2-amino-9H-purine-9-yl)methyl]-2-propylcyclopropyl}oxy)methylphosphonic acid [Compound 39]” returned an EC50 in the data set with Hepatitis B Virus (HBV) of over 40 µM. Further, the CC50 with HepG2.2.15 cell [3] was over 1000 µM.

On to “({(±)-trans-1-[(6-amino-9H-purine-9-yl)methyl]-2-propylcyclopropyl}oxy)methylphosphonic acid [Compound 41]”, for which the EC50 in the data set on Hepatitis B Virus (HBV) is over 30 µM. In the data set on HepG2.2.15 cell [3], this compound came in with a CC50 of over 1000 µM.

In the data set with Hepatitis B Virus (HBV), “[{(±)-trans-1-({2-amino-6-[(4-methoxyphenyl)sulfanyl]-9H-purine-9-yl}methyl)-2-ethylcyclopropyl }oxy]methylphosphonic acid [Compound 43]” returned an EC50 of over 0.2 µM. The compound also registered a cytotoxic concentration (CC50) in the data set on HepG2.2.15 cell [3] of over 1000 µM.
